The values below come from patent US20240335462A1, “SULFUR/PHOSPHORUS-CONTAINING ARYL COMPOUND AND APPLICATION THEREOF” (MEDSHINE DISCOVERY INC., priority 2021, published 2024).

Like-named read-outs stand apart in the source and are kept apart here. Marks after values point to notes of the source that are not given here.

A short description of data set [1]: Pharmacokinetic testing in mice. The data set is classed as in vivo, male CD-1 mice. The conditions noted are these: mouse; for Vd / AUC(0-t) / half-life / C0 / bioavailability / Cmax / Tmax: male, CD-1, plasma; for Vd: read-out: Apparent volume of distribution Vd; for AUC(0-t): read-out: Area under the curve AUC0-last; for half-life: read-out: Half-life T1/2 (converted); for C0: read-out: Starting concentration C0; for bioavailability: read-out: Bioavailability F %; for Cmax: read-out: Peak concentration Cmax; for Tmax: read-out: Time to peak concentration Tmax. The procedure: The objective was to study the pharmacokinetic behavior of the compound of the present disclosure in mice and evaluate the pharmacokinetic characteristics, using male CD-1 mice aged 7 to 9 weeks as test animals. The drug concentrations in plasma at different time points after a single intravenous injection (IV) and oral administration (PO) of the compound were determined using LC/MS/MS.
The pharmacokinetic characteristics of the compound in rodents following intravenous injection and oral administration were tested using a standard protocol. Test animals were fasted for 10 to 14 hours before administration and allowed to feed 4 hours post-administration. The compound was prepared into a clear solution with the appropriate solvent for both IV (intravenous injection) and PO (oral gavage) administration. The solvent was 10% DMSO+10% solutol+80% (10% HP-β-CD aqueous solution). Whole blood samples were collected within 24 hours, centrifuged at 6000 g for 3 minutes, and the supernatant was separated to obtain plasma samples. Protein precipitation was performed by adding four times the volume of acetonitrile solution containing internal standard to the plasma samples. After centrifugation, the supernatant was added with an equal volume of water and then centrifuged before being subjected to LC-MS/MS analysis for quantifying plasma drug concentration. Pharmacokinetic parameters such as peak concentration, time to peak concentration, clearance, half-life, area under the drug-time curve, and bioavailability were calculated.

The subject of data set [2] is IL-23-induced psoriasis-like skin lesions. In words: Mouse psoriasis-like model induced by IL-23. The data set is classed as in vivo, C57BL/6 mice. Set-up: Total score for epidermal hyperplasia of ear pinnae / AUC of total score for epidermal hyperplasia of ear pinnae / Pathological score: Degree of keratinization / Pathological score: Epidermal thickness / Pathological score: Dermal thickness / Pathological score: Inflammatory cell infiltration / Comprehensive pathological score: scale not given here. An excerpt: The purpose of this experiment was to evaluate the prophylactic and therapeutic effect of the test substance on IL-23-induced psoriasis-like skin lesions in mice by intradermal injection of IL-23 into the ear pinnae in a psoriasis-like skin lesion model.
Female C57BL/6 mice of qualified body weight were randomly divided into groups, with 6 mice per group. The grouping and administration information was as follows. The groups were: blank control group, model group, positive control Ustekinumab (5 mg/kg) group, WX-011A hydrochloride (30, 50 mg/kg) group, and WX-020 sulfate (30, 50 mg/kg) group. Except for the blank control group, the animals in the other groups received an intradermal injection of IL-23 (3 μg/10 μL/mouse/day, QD) in the right ear for 8 consecutive days (Day 0 to Day 7). The blank control group received an intradermal injection of an equal volume of saline solution (10 μL/mouse/day, QD) in the right ear for 8 consecutive days (Day 0 to Day 7). Concurrent with model induction, the solvent or test drug was orally administered twice a day (Bid) at 6-hour intervals for 8 consecutive days (Day 0 to Day 7). The positive control was subcutaneously injected on Day 0 and Day 3 (a total of 2 doses). During the administration period, the body weight of the animals was monitored every two days. On Day 0, Day 2, Day 4, Day 6 (all before IL-23 injection), and Day 8, the thickness of the right ear of the mice was measured, and the appearance of the ear pinnae was observed and scored.
The compounds were all prepared into a clear solution with 10% DMSO+[…] as a solvent for PO (oral gavage) administration. Administration volume parameters: 10 mL/kg based on the body weight of the mice.
After grouping, IL-23 (3 μg/10 μL/mouse/day, QD) was injected intradermally into the right ears of the mice for 8 consecutive days (Day 0 to Day 7). Measurements of the thickness of the right ear and observations and scoring of the appearance of the ear pinnae were performed on Day 0, Day 2, Day 4, Day 6 (all before IL-23 injection), and Day 8. At the end of the experiment (Day 8), the left ear tissues of the mice from groups G4 to G10 (3 animals per group at each time point) were collected. The right ear, which had been modeled, was excised, an 8 mm ear punch was taken along the edge of the pinna, and its weight was measured. The excised right ear tissues were fixed in formalin for histopathological examination (H&E staining).
Concurrent with model induction, corresponding drug treatment was given for administration. Except for the positive control drug (Ustekinumab), which was subcutaneously injected on Day 0 and Day 3 (once a day), control and test drugs for each dose group were orally administered by gavage twice a day at 6-hour intervals for 8 consecutive days (Day 0 to Day 7).
The pathological scoring of mouse ear tissue sections was conducted according to the criteria in Table 33.
The experimental data are represented as Mean±SD; statistical analysis was performed using IBM SPSS Statistics 21, with p<0.05 considered to indicate a statistically significant difference between the two groups. The effect of the test substance on the thickness of mouse ears in the IL-23 induced mouse pinna epidermal hyperplasia model is shown in Table 34. The effect of the test substance on the total score and AUC for […] induced mouse pinna epidermal hyperplasia is shown in Table 35.

Where [3] appears, read: 5 mg/kg SC on Day 0 and Day 3, Day 0.
Setting [4] is: 5 mg/kg SC on Day 0 and Day 3, Day 2.
The mark [5] stands for this setting: 5 mg/kg SC on Day 0 and Day 3, Day 4.
Setting [6] is: 5 mg/kg SC on Day 0 and Day 3, Day 6.
Where [7] appears, read: 5 mg/kg SC on Day 0 and Day 3, Day 8.
The mark [8] stands for this setting: 5 mg/kg SC, right ear H&E sections.

Take `CNC(=O)c1nnc(NC(=O)C2CC2)cc1Nc1cccc(-c2ncc(S(=N)(=O)C(C)C)cn2)c1OC` (stereo not shown) [WX-011]: in data set [1] (IV 1 mg/kg), the Vd was 0.7 L/kg, the AUC(0-t) was 4.79 µM·h, the half-life was 3.2 h and the C0 was determined as 5.42 µM. The “Apparent clearance Cl” value in data set [1] (IV 1 mg/kg) is 6.6 mL/min/kg. For the same compound, in data set [1] (PO 10 mg/kg), the AUC(0-t) was found to be 25 µM·h, the bioavailability was 52%, the Cmax came out at 10.2 µM and the Tmax came to 0.5 h.
Consider `CNC(=O)c1nnc(NC(=O)C2CC2)cc1Nc1cccc(-c2ccc(S(=N)(=O)C(C)C)cn2)c1OC` (stereo not shown) [WX-012], for which, in data set [1] (IV 1 mg/kg), the Vd was found to be 2.9 L/kg, the AUC(0-t) was 2.46 µM·h, the half-life is 4.4 h and the C0 stood at 2.75 µM. The “Apparent clearance Cl” value in data set [1] (IV 1 mg/kg) was found to be 12.8 mL/min/kg. Further, in data set [1] (PO 10 mg/kg), the AUC(0-t) is 16.7 µM·h, the bioavailability is 68%, the Cmax is 12.4 µM and the Tmax came to 0.3 h.
In the case of “Ustekinumab: positive control Ustekinumab (anti-IL-12/IL-23), Selleck, subcutaneously injected [reference compound]”, in data set [2] (setting [3]), the “Ear thickness (mm)” value is recorded as 0.196 mm and the “Total score for epidermal hyperplasia of ear pinnae” value is given as 0.00. Further, the “AUC of total score for epidermal hyperplasia of ear pinnae” value in data set [2] (5 mg/kg SC on Day 0 and Day 3, Day 0 to Day 8) is recorded as 2.83**. In data set [2] (setting [4]), the “Ear thickness (mm)” value is 0.277* mm and the “Total score for epidermal hyperplasia of ear pinnae” value is given as 0.00. Besides, in data set [2] (setting [5]), the “Ear thickness (mm)” value is on record as 0.288** mm and the “Total score for epidermal hyperplasia of ear pinnae” value is 0.33*. For the same compound, in data set [2] (setting [6]), the “Ear thickness (mm)” value is listed as 0.316** mm and the “Total score for epidermal hyperplasia of ear pinnae” value is 0.67**. Moreover, in data set [2] (setting [7]), the “Ear thickness (mm)” value is recorded as 0.329* mm and the “Total score for epidermal hyperplasia of ear pinnae” value is recorded as 0.83**. In addition, in data set [2] (setting [8]), the Comprehensive pathological score is on record as 3.50**, the “Pathological score: Degree of keratinization” value is 0.50**, the “Pathological score: Dermal thickness” value is reported as 0.67 and the “Pathological score: Epidermal thickness” value is listed as 1.17**. In addition, the “Pathological score: Inflammatory cell infiltration” value in data set [2] (setting [8]) was 1.17**.

As usually defined, the bioavailability is dose-corrected exposure relative to a reference, in per cent.
